According to US20060216774A1 (priority 2003, published 2006):

How the values were obtained:
icl1 (isocitrate lyase) = icl1 (isocitrate lyase) (Mycobacterium tuberculosis, UniProt P9WKK7); details: read-out: Km for icl1; substrate isocitrate; cited from earlier work
icl2 (isocitrate lyase) = icl2 (isocitrate lyase) (Mycobacterium tuberculosis, UniProt Q8VJU4); details: read-out: Km for icl2; substrate isocitrate; cited from earlier work
isocitrate lyase (icl) = isocitrate lyase (icl) (Escherichia coli, UniProt P0A9G6); details: read-out: Km of icl; E. coli, substrate isocitrate; cited from earlier work
[1] = system: O=C(O)CC(C(=O)O)C(O)C(=O)O; assay: purified protein, by the assay type; details: other: Lineweaver-Burke plot and Cornish-Bowden direct linear plot

Chain of icl1 (isocitrate lyase) (P9WKK7 whole entry): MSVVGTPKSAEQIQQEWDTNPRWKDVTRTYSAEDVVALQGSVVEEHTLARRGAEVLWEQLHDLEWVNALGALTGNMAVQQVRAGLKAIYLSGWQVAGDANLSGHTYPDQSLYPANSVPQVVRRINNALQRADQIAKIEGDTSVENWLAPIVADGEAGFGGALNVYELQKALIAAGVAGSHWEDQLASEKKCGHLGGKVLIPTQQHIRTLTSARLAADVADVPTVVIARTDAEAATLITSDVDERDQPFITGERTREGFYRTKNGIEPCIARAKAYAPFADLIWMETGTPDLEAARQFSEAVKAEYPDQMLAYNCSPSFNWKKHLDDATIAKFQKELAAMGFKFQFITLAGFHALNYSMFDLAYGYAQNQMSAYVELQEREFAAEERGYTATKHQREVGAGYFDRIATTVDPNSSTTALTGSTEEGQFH
Chain of isocitrate lyase (icl) (P0A9G6 whole entry): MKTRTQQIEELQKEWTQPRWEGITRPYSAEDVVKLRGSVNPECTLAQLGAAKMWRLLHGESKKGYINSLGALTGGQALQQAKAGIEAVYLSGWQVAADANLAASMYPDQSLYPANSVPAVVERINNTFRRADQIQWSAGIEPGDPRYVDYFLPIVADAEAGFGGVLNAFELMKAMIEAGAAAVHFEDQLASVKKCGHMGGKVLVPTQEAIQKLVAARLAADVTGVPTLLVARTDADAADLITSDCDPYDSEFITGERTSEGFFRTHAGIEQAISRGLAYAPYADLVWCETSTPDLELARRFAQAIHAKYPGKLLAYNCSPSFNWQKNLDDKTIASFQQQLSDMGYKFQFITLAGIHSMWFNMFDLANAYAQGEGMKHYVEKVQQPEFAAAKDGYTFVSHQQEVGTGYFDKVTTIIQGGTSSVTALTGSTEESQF
Chain of icl2 (isocitrate lyase) (Q8VJU4 whole entry): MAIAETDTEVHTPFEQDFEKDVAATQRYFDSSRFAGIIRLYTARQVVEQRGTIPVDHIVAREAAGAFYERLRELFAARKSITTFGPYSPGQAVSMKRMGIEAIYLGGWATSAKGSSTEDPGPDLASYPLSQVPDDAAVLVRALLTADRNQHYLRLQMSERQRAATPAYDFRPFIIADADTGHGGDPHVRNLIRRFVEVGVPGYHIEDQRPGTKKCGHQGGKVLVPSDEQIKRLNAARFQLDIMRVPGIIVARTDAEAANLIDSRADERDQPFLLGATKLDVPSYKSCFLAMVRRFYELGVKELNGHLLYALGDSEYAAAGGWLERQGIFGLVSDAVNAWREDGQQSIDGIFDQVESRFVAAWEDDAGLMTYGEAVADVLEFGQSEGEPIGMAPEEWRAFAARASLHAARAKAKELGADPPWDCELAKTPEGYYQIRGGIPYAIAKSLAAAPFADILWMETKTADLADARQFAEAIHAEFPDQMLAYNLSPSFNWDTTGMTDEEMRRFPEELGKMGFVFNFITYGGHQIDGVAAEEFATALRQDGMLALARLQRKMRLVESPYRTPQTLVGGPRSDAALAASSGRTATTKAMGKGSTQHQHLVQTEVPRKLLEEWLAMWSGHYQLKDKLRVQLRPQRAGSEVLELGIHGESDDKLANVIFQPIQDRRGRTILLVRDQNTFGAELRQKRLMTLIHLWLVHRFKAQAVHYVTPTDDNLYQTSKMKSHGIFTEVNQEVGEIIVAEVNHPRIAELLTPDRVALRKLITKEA

In the case of `O=C(O)CC(C(=O)O)C(O)C(=O)O` (stereo not shown) [isocitrate], the Km (icl1 (isocitrate lyase)) is given as roughly 115 µM, the Km (icl2 (isocitrate lyase)) is given as roughly 1500 µM and the Km (isocitrate lyase (icl)) is given as 604 µM.

“icd1 (isocitrate dehydrogenase, Rv 3339c) (Mycobacterium tuberculosis H37Rv)” gave a Km [1] of 12 µM.
